According to patent US20240000885A1 (VANDERBILT UNIVERSITY, published 2024):
Like-named read-outs stand apart in the source and are kept apart here.

Experiments:
[1] = molecular target: interaction of MHV M-GFP with Cherry-MYO5B+D tail (902T) in A549 cells (UniProt P03415+Q9ULV0); assay type: cell-based, human
[2] = molecular target: interaction of MHV M tail with MYO5B(ABCDE) (UniProt P03415+Q9ULV0); assay type: cell-based, Mouse Hepatitis Virus (MHV)
pAD-MYO5B(ABCDE) = molecular target: T1, pAD-MYO5B(ABCDE) (human, UniProt Q9ULV0 1235-1439); experiment: binary yeast 2-hybrid
T1 construct: also called MYO5B ABCDE exons; construct containing just the ABCDE exons
T1 sequence: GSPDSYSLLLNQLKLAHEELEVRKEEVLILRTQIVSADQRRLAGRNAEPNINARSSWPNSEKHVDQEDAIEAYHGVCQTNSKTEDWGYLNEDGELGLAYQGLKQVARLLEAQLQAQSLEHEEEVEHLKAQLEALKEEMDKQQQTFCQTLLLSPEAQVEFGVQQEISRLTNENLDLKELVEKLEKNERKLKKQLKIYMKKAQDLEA

interaction of MHV M-GFP with Cherry-MYO5B+D tail (902T) in A549 cells, sequence (Q9ULV0 902-1848, one chain of several): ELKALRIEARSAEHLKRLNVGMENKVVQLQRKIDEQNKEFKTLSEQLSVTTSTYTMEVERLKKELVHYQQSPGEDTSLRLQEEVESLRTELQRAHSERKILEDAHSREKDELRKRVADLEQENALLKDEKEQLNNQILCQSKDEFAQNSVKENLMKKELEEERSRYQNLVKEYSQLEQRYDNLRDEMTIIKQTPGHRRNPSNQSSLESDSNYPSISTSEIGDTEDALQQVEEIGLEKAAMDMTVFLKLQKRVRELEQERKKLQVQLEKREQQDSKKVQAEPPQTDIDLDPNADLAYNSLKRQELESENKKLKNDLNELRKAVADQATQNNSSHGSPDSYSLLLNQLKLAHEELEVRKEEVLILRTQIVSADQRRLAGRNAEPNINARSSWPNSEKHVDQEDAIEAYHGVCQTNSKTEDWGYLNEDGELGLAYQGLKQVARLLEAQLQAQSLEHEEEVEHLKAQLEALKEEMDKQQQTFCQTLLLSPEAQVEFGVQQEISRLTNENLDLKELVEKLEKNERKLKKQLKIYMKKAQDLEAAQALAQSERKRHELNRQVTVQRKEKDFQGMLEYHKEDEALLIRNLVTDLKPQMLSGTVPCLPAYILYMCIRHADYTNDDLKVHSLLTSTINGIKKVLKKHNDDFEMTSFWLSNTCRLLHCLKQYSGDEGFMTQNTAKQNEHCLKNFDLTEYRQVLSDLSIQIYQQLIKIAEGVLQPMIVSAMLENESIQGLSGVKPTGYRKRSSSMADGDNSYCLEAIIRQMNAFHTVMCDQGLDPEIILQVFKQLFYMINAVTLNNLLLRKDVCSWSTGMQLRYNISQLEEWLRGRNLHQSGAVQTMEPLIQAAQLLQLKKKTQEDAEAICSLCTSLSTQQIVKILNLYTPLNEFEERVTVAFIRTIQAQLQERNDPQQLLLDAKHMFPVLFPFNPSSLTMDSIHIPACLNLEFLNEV

## CN1Cc2c(N)cccc2C(c2ccccc2)C1 (centres unmarked) [Nomifensine]
[1]
  inhibition of the interaction between MHV M and MYO5B+D: did not alter the interaction
[2]; 10 μM, 24 hours
  identified as hit in initial yeast 2-hybrid screen (loss of b-galactosidase activity): hits

## O=C(O)Cc1ccccc1Nc1c(Cl)cccc1Cl [Diclofenac]
[1]
  inhibition of the interaction between MHV M and MYO5B+D: more equivocal effects
[2]; 10 μM, 24 hours
  identified as hit in initial yeast 2-hybrid screen (loss of b-galactosidase activity): hits

## CS(=O)(=O)Nc1ccc([N+](=O)[O-])cc1Oc1ccccc1 [Nimesulide]
[1]
  inhibition of the interaction between MHV M and MYO5B+D: more equivocal effects
[2]
  identified as hit in initial yeast 2-hybrid screen (loss of b-galactosidase activity): hits

## NC(N)=Nc1nc(CSCCC(N)=NS(N)(=O)=O)cs1 [Famotidine]
[1]
  effect on the co-localization of MHV M with MYO5B+D: no effect

## Amiodorone
[1]
  inhibition of the interaction between MHV M and MYO5B+D: showed inhibition
[2]; 10 μM, 24 hours
  identified as hit in initial yeast 2-hybrid screen (loss of b-galactosidase activity): hits

## CN/C(=N/CCSCc1nc[nH]c1C)NC#N [Cimetidine]
[1]
  effect on the co-localization of MHV M with MYO5B+D: no effect

## CNC(=C[N+](=O)[O-])NCCSCc1csc(CN(C)C)n1 [Nizatidine]
[1]
  effect on colocalization of MHV M-GFP with ch-MYO5B+D 902 Tail: disrupts the colocalization
  inhibition of the interaction between MHV M and MYO5B+D: showed inhibition
  lowest concentration causing loss of localization between MHV M and MYO5B+D: 10 pM
  lowest concentration that disrupted co-localization of MHV M-GFP and Cherry-MYO5B+D tail: 100 µM
  lowest dose that disrupted co-localization of MHV M with MYO5B+D: 100 pM
[2]
  identified as hit in initial yeast 2-hybrid screen (loss of b-galactosidase activity): hits

B1: MHV M tail with deletion of the terminal 2 amino acids (other)
chain: SIRLFIRTGSWWSFNPETNNLMCIDMKGTVYVRPIIEDYHTLTATIIRGHLYMQGVKLGTGFSLSDLPAYVTVAKVSHLCTYKRAFLDKVDGVSGFAVYVKSKVGNYRLPSNKPSGADTALL
pAD-MYO5B(ABCDE)
  binding result: binds
